Data set [1] has as its target T1, Alpha-1D adrenergic receptor (Homo sapiens, UniProt P25100).
T1 sequence (P25100 whole entry): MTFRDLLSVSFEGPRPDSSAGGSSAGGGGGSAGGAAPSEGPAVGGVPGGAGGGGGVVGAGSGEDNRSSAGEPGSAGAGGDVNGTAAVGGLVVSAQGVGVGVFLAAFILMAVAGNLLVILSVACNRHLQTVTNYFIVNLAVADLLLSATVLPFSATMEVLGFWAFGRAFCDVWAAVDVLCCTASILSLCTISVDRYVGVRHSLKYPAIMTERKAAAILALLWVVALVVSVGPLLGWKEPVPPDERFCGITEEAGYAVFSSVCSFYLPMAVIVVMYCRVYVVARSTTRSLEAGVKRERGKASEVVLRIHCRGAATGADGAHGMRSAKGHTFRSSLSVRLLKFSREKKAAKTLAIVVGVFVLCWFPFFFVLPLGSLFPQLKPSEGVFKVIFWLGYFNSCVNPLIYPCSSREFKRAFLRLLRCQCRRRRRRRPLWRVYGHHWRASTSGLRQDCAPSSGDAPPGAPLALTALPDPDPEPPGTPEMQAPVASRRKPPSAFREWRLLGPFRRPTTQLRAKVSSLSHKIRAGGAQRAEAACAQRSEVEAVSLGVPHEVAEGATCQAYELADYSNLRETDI
The data set can be described thus: In vitro binding affinity towards cloned human Alpha-1D adrenergic receptor.

Data set [2] addresses T2, Alpha-1A adrenergic receptor (Homo sapiens, UniProt P35348).
T2 sequence (P35348 whole entry): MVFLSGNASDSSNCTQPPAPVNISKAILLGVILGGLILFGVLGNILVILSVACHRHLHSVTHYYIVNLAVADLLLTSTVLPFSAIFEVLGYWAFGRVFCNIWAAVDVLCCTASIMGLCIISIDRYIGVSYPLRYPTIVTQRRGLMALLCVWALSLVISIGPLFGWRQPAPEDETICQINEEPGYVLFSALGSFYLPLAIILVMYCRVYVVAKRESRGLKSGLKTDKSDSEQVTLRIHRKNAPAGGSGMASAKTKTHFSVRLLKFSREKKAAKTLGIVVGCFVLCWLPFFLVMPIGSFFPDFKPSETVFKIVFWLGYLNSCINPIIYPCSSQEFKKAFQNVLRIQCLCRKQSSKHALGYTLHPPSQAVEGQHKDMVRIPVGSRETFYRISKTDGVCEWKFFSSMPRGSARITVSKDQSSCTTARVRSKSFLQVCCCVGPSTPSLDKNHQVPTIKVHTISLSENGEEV
The data set can be described thus: In vitro binding affinity towards cloned human Alpha-1A adrenergic receptor.

The target of data set [3] is T3, Alpha-1B adrenergic receptor (Homo sapiens, UniProt P35368).
T3 sequence (P35368 whole entry): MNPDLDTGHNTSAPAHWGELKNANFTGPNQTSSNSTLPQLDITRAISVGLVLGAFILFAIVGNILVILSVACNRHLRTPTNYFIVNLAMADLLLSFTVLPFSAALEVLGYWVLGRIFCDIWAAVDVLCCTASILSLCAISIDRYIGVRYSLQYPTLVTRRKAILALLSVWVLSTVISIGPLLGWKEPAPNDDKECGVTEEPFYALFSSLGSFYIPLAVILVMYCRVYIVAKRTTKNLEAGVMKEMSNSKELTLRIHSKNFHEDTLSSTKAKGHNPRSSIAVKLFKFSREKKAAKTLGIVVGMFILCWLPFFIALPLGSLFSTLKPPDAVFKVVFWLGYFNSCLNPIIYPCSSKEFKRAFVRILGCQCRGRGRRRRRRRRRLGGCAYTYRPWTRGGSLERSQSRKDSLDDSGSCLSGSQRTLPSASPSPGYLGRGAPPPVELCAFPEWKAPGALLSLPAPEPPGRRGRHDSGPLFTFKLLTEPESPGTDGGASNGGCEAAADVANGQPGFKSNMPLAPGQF
Kind of data set: In vitro binding affinity towards cloned human Alpha-1B adrenergic receptor.

Data set [4] can be described thus: Bioavailability in rat (Sprague-Dawley) (male) (dose 1 mg/kg i.v. and 3 mg/kg p.o.) measured from 0.3 to 6 hr. The data set is classed as ADME, organism-based. Conditions: in vivo, po.
Data set [5] can be described thus: Half-life in rats. Type of data set: ADME, organism-based. To be noted: rat, in vivo.
Data set [6] in a line: Bioavailability in dog (Beagle) (male) (dose 3 mg/kg i.v. and 10 mg/kg p.o.) measured from 1 to 24 hr. To be noted: in vivo, po. The data set is classed as ADME, organism-based, Canis lupus familiaris.
Data set [7] is described as follows: Half-life in dogs. Type of data set: ADME, organism-based, Canis lupus familiaris. To be noted: dog, in vivo.

Each structure is given as a SMILES string.

Broadly, the Ki is the dissociation constant of the complex between target and ligand, obtained from inhibition or displacement. For the compound `Cc1ccc(C2(c3ccc(C)cc3)CC(=S)N(CCCN3CCC(C#N)(c4ccccc4Cl)CC3)C2=O)cc1`, the Ki was greater than 5000 nM in data set [1], 220 nM in data set [2] and greater than 2000 nM in data set [3].

Broadly, the bioavailability is dose-corrected exposure relative to a reference, in per cent. A low value points to little systemic uptake. One may read the half-life as the time needed for the level to fall by half in the phase considered. Low readings indicate rapid decline, high ones slow decline. Take `Cc1ccc(C(O)(C(=O)NCCCN2CCC(C#N)(c3ccccc3C)CC2)c2ccc(C)cc2)cc1`: the Ki in data set [1] was determined as 1500 nM; in data set [2], 2 nM; in data set [3] it was 570 nM. Further, the bioavailability in data set [4] is less than 1%. This compound also gave a half-life in data set [5] of 1.3 h.

Consider `Cc1ccc(C(O)(C(=O)NCCCN2CCC(C#N)(c3ccccc3)CC2)c2ccc(C)cc2)cc1`, for which the Ki in data set [1] is 4800 nM; in data set [2], 5.7 nM; in data set [3], 1800 nM.

Take `COC(=O)C1(c2ccccc2)CCN(CCCNC(=O)C(c2ccc(C)cc2)c2ccc(C)cc2)CC1`: the results for the Ki in data set [1], in data set [2] and in data set [3] were 975 nM, 17 nM and 170 nM, respectively.

As for `Cc1ccc(C2(c3ccc(C)cc3)CC(=O)N(CC(O)CN3CCC(C#N)(c4ccccc4C)CC3)C2=O)cc1` (centres undefined), the results for the Ki in data set [1], in data set [2] and in data set [3] were 4100 nM, 9.7 nM and 1500 nM, respectively.

As to `Cc1ccc(C2(c3ccc(C)cc3)OC(=O)N(CCCN3CCC(C#N)(c4ccccc4C)CC3)C2=O)cc1`, the Ki in data set [1] is greater than 5000 nM; in data set [2], 77 nM; in data set [3], greater than 2000 nM.

In the case of `Cc1ccc(C2(c3ccc(C)cc3)CC(=O)N(CCCN3CCC(C#N)(c4ccccc4C)CC3)C2=O)cc1`, the Ki worked out at 1500 nM in data set [1], 1.7 nM in data set [2] and 1900 nM in data set [3]. The values for the bioavailability in data set [4] and in data set [6] were 18% and 8%, respectively. The values for the half-life in data set [5] and in data set [7] were 2.5 h and 1.3 h, respectively.

Turning to `Cc1ccc(C2(c3ccc(C)cc3)CC(=O)N(CCCN3CCC(C#N)(c4ccccc4Cl)CC3)C2=O)cc1`, the Ki in data set [1] was found to be 220 nM; in data set [2], 0.48 nM; in data set [3], 98 nM. Further, the bioavailability turned out to be 19% in data set [4] and 11% in data set [6]. Also, the half-life is 0.66 h in data set [5] and 1.7 h in data set [7].

The record behind these values is ChEMBL document CHEMBL1134805, “Cyclic imides as potent and selective alpha-1A adrenergic receptor antagonists” (Bioorg Med Chem Lett, 2001).
